Assays:
[1] = Molar enthalpy of transition or fusion; details: Crystal 2; Adiabatic calorimetry
[2] = for molar entropy: 101.33 kPa, Small (less than 1 g) adiabatic calorimetry

CCC(=O)O[C@]1(C(=O)COC(C)=O)CC[C@H]2[C@@H]3C[C@H](C)C4=CC(=O)C=C[C@]4(C)[C@H]3[C@@H](O)C[C@@]21C [Methylprednisolone aceponate]
Details | Molar enthalpy of transition or fusion [kcal/mol]
[1] | 0.0526

[2]
Details | molar entropy [J/K/mol]
5 K, Crystal 2 | 0.628
10 K, Crystal 2 | 4.44
15 K, Crystal 2 | 10.8
20 K, Crystal 2 | 18.5
25 K, Crystal 2 | 27.49
30 K, Crystal 2 | 37.43
40 K, Crystal 2 | 58.9
50 K, Crystal 2 | 81.57
60 K, Crystal 2 | 105
70 K, Crystal 2 | 128.9
80 K, Crystal 2 | 152.9
90 K, Crystal 2 | 177.1
100 K, Crystal 2 | 201.3
110 K, Crystal 2 | 225.4
120 K, Crystal 2 | 249.3
130 K, Crystal 2 | 273.2
140 K, Crystal 1 | 296.3
150 K, Crystal 1 | 318.6
160 K, Crystal 1 | 340.7
170 K, Crystal 1 | 362.5
180 K, Crystal 1 | 384.1
190 K, Crystal 1 | 405.4
200 K, Crystal 1 | 426.6
210 K, Crystal 1 | 447.6
220 K, Crystal 1 | 468.5
230 K, Crystal 1 | 489.3
240 K, Crystal 1 | 509.9
250 K, Crystal 1 | 530.5
260 K, Crystal 1 | 551
270 K, Crystal 1 | 571.5
280 K, Crystal 1 | 591.8
290 K, Crystal 1 | 612.1
298.15 K, Crystal 1 | 628.6
300 K, Crystal 1 | 632.4
310 K, Crystal 1 | 652.6
320 K, Crystal 1 | 672.9
330 K, Crystal 1 | 693.1
340 K, Crystal 1 | 713.4
346 K, Crystal 1 | 725.6

Details | Triple point temperature [K]
[2], Crystal 2, Adiabatic calorimetry | 131

From the NIST ThermoML archive (doi:10.1016/j.jct.2016.08.022)
